The values below come from PubChem BioAssay (NCI).

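Protocol summary: plate cells (96-well), add compound at 5 concentrations, incubate 48 h, interpolate endpoints linearly. The concentration for full growth arrest is given as TGI.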

What all share (test): NCI-60 cell line screen, 48 h
Assay [1] relates to HCC-2998 colon.
For assay [2], the system named is HCT-116 colon.
Assay [3] deals with KM12 colon.
The test system of assay [4] is MALME-3M melanoma.
In assay [5] the test system is NCI-H522 lung.
Assay [6] relates to OVCAR-4 ovarian.
Assay [7] deals with OVCAR-5 ovarian.
Assay [8] deals with OVCAR-8 ovarian.
In assay [9] the test system is RPMI-8226 leukemia.
In assay [10] the test system is SF-539 CNS.
The subject of assay [11] is SK-MEL-28 melanoma.
The test system of assay [12] is SK-OV-3 ovarian.
Assay [13] concerns SNB-78 CNS.
Assay [14] relates to TK-10 renal.
Assay [15] deals with U251 CNS.
For assay [16], the system named is LOX IMVI melanoma.
In assay [17] the test system is BT-549 breast.
Assay [18] concerns DU-145 prostate.
The test system of assay [19] is HS 578T breast.
For assay [20], the system named is MCF7 breast.

In the case of `CCCN(CCC)c1c([N+](=O)[O-])cc(C(=O)N(CCO)CCO)cc1[N+](=O)[O-]`, the TGI in assay [1], in assay [2], in assay [3], in assay [4], in assay [5] and in assay [6] was greater than 100 µM in each case. Moreover, the TGI in assay [7], in [8], in [9], in assay [10], in assay [11] and in assay [12] was greater than 100 µM each time. Besides, the TGI in assay [13], in assay [14] and in assay [15] was greater than 100 µM throughout.

As to `CCOC(=O)C1([Se]c2ccccc2)CCCC1=O` (stereo not given), the TGI was greater than 100 µM in assay [1]; 30.9 µM in assay [2]; greater than 100 µM in [3]; 26.7 µM in assay [16]; greater than 100 µM in assay [4]; 15.5 µM in [5]. Also, the TGI in assay [6] is 36.8 µM; in [7] it was greater than 100 µM; in [8] it was 30.5 µM; in [9], 55.4 µM; in [10], 43.6 µM; in assay [11] it was 41.9 µM. Besides, the TGI in assay [12] was greater than 100 µM; in assay [13], 54.9 µM; in [14], greater than 100 µM; in assay [15], 23.3 µM.

Take `O=C1C2C3C=C4c5ccccc5N(c5ccccc5)C4(C2C(=O)N1c1ccc(Br)cc1)[C@H]1C(=O)N(c2ccc(Br)cc2)C(=O)[C@@H]31` (stereo not given in full): the TGI in assay [2], in [3], in assay [16], in [4], in assay [5] and in [6] was greater than 100 µM each time. The TGI in assay [7], in assay [8], in [9], in [10], in assay [12] and in assay [13] was greater than 100 µM throughout. Further, the TGI in assay [14] and in assay [15] was greater than 100 µM in each case.

On to `OC12c3ccccc3C3CCC4(OCCO4)C3C1c1ccccc12` (stereo not given), for which the TGI in assay [1], in assay [2], in [3], in assay [16], in assay [4] and in assay [5] was greater than 100 µM in each case. The TGI in assay [6], in assay [7], in assay [8], in assay [9], in assay [10] and in assay [11] was greater than 100 µM throughout. The TGI in assay [12], in assay [13], in [14] and in [15] was greater than 100 µM in each case.

On to `C#CC1(O)CCC2[C@@H]3CCc4cc(Oc5nc(F)nc(-c6c7ccccc7cn6C)n5)ccc4C3CC[C@@]21C` (stereo not given in full), for which the TGI in assay [1], in assay [2], in assay [3], in assay [16], in assay [4] and in assay [5] was greater than 100 µM in each case. The TGI is greater than 100 µM in assay [6]; greater than 100 µM in assay [7]; greater than 100 µM in assay [8]; greater than 70.7 µM in assay [9]; greater than 100 µM in assay [10]; greater than 100 µM in [11]. The TGI in [12], in assay [13], in assay [14] and in assay [15] was greater than 100 µM throughout.

Consider `O=c1[nH]c(=O)n(C2CC(O)C(CO)O2)cc1C#Cc1ccc(F)cc1` (stereo not given), for which the TGI in assay [1], in assay [3], in assay [16], in assay [4], in assay [5] and in [6] was greater than 100 µM in each case. Besides, the TGI in [7], in assay [8], in [9], in [10], in assay [11] and in [12] was greater than 100 µM throughout. Further, the TGI in [13] and in assay [15] was greater than 100 µM each time.

Turning to `CCOC(=O)/C(=C/c1ccc(N(CCC#N)CCC#N)cc1C)NC(=O)/C=C/c1ccccc1`, the TGI in assay [1], in [2], in assay [3], in assay [16], in assay [4] and in assay [5] was greater than 100 µM each time. The TGI in assay [7], in assay [8], in assay [9], in assay [10], in [11] and in assay [12] was greater than 100 µM in each case. Besides, the TGI in assay [13], in [14] and in assay [15] was greater than 100 µM throughout.

`COc1ccc(C(=O)N/N=C/c2c(C)n(C)n(-c3ccccc3)c2=O)cc1`: the TGI in assay [1], in [2], in assay [3], in assay [16], in [4] and in assay [5] was greater than 100 µM each time. The TGI in assay [6], in [8], in assay [9], in [10], in assay [11] and in assay [12] was greater than 100 µM in each case. For the same compound, the TGI in assay [13], in [14] and in assay [15] was greater than 100 µM in each case.

As to `C=CCOC(=O)C1CCC(=O)N1C(=O)C(Cl)Cl` (stereo not given), the TGI in assay [1], in assay [2], in [3], in assay [16], in assay [4] and in [5] was greater than 100 µM throughout. For the same compound, the TGI in [6], in [7], in assay [8], in assay [9], in [11] and in [12] was greater than 100 µM each time. Besides, the TGI in [13], in assay [14] and in [15] was greater than 100 µM in each case.

`O=c1[nH]c(=O)n(C2OC(CO)C(O)C2O)cc1OCC(F)(F)F` (stereo not given): the TGI in assay [1], in [2], in [3], in assay [16], in assay [4] and in [5] was greater than 100 µM each time. For the same compound, the TGI in assay [6], in assay [7], in assay [8], in assay [9], in assay [10] and in assay [11] was greater than 100 µM in each case. In addition, the TGI in assay [12], in assay [13], in assay [14] and in [15] was greater than 100 µM in each case.

For the compound `O=S(=O)(/N=C(\NO)Nc1ccc(Cl)cc1)c1ccccc1`, the TGI in assay [17] was 33.7 µM; in assay [18], greater than 60.3 µM; in assay [1], 22 µM; in assay [2] it was 24.3 µM; in assay [19] it was 34.6 µM; in assay [3], greater than 100 µM. Further, the TGI is 33.6 µM in assay [16]; 22.5 µM in [4]; greater than 100 µM in [20]; 5.38 µM in assay [5]; greater than 61.2 µM in assay [6]; 56.6 µM in assay [7]. The TGI in [8] was greater than 75 µM; in assay [9], 56.8 µM; in [10], greater than 30.6 µM; in assay [11], 33.9 µM; in [12] it was greater than 100 µM; in assay [14] it was greater than 61.6 µM. Also, the TGI in [15] is greater than 100 µM.

`CC1NC(=O)C2=C1C(N)=NC(=O)C2` (stereo not given): the TGI in assay [1], in assay [2], in assay [3], in [16], in [4] and in assay [5] was greater than 100 µM throughout. Moreover, the TGI in assay [6], in assay [7], in assay [8], in [9], in [10] and in assay [11] was greater than 100 µM in each case. Moreover, the TGI in assay [12], in assay [13], in assay [14] and in assay [15] was greater than 100 µM throughout.

In the case of `CCn1c2c(c3ccccc31)C(c1ccccc1)CC1C(=O)N(c3ccccc3)C(=O)C21` (stereo not given), the TGI in assay [1] is greater than 100 µM; in [2] it was greater than 100 µM; in assay [3], greater than 100 µM; in assay [16], greater than 100 µM; in assay [4], 52.4 µM; in assay [5] it was greater than 100 µM. The TGI in assay [6], in assay [7], in [8], in assay [10], in assay [11] and in assay [12] was greater than 100 µM each time. Moreover, the TGI in assay [13] and in [14] was greater than 100 µM in each case.

As for `CC(C)(C)OC(=O)c1cccnc1/C=N/O`, the TGI in [2], in assay [3], in assay [16], in assay [4], in assay [5] and in assay [6] was greater than 100 µM each time. Besides, the TGI in assay [7], in assay [8], in assay [10], in assay [11], in assay [12] and in assay [13] was greater than 100 µM each time. For the same compound, the TGI in assay [14] and in assay [15] was greater than 100 µM throughout.
